# Measured values published in patent US11518758B2, “Heteroarylaminopyrimidine amide autophagy inhibitors and methods of use thereof” (Deciphera Pharmaceuticals, LLC, priority 2019, dated 2022).
# What was measured:
# ULK2 kinase = molecular target: T1, ULK2 kinase (Homo sapiens, UniProt Q8IYT8); assay: Biochemical assay for ULK2 (coupled pyruvate kinase/lactate dehydrogenase assay); details: 9.7 nM ULK2 (Eurofins), myelin basic protein, 1 mM ATP; read-out: ULK2.2
# T1 construct: purchased Eurofins 14-772
# T1 sequence (Q8IYT8 with tags, fused parts or gaps): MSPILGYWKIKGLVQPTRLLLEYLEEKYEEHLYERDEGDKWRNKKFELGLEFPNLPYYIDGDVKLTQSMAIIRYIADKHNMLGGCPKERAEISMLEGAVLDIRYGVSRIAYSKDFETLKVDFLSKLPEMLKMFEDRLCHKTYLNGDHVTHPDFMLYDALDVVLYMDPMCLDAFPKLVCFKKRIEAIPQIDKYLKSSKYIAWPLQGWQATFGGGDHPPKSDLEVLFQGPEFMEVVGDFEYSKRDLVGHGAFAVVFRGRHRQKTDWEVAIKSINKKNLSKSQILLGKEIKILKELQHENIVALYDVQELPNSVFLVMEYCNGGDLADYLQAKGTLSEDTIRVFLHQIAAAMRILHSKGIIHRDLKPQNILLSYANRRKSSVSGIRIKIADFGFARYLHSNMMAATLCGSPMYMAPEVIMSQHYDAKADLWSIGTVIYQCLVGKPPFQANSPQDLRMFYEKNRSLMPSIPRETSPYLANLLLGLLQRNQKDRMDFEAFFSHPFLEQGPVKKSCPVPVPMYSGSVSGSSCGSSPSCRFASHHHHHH
# Method: Example 176. Biochemical Assay for ULK2
# Activity of ULK2 kinase was determined spectroscopically using a coupled pyruvate kinase/lactate dehydrogenase assay that continuously monitors the ATP hydrolysis-dependent oxidation of NADH (e.g., Schindler et al. Science (2000) 289: 1938-1942). Assays were conducted in 384-well plates (100 uL final volume) using 9.7 nM ULK2 (Eurofins CAT #14-772), 0.25 mg/mL myelin basic protein, 1.5 units pyruvate kinase, 2.1 units lactate dehydrogenase, 1 mM phosphoenol pyruvate, 0.28 mM NADH and 1 mM ATP in assay buffer (100 mM Tris, pH 7.5, 15 mM MgCl2, 0.5 mM DTT, 0.1% octyl-glucoside, 0.002% (w/v) BSA, and 0.002% Triton X-100). Inhibition of ULK2 was measured by adding serial diluted test compound (final assay concentration of 1% DMSO). A decrease in absorption at 340 nm was monitored continuously for 6 hours at 30° C. on a multi-mode microplate reader (BioTek). The reaction rate was calculated using the 2-3 h time frame. The reaction rate at each concentration of compound was converted to percent inhibition using controls (i.e. reaction with no test compound and reaction with a known inhibitor) and IC50 values were calculated by fitting a four-parameter sigmoidal curve to the data using Prism (GraphPad software).
# [1] = test system: phospho-Serine 318 ATG13 (pATG13) in MiaPaCa-2 cells; assay: pATG13 levels of mutant KRas MiaPaCa-2 cells after treatment with ULK inhibitors in combination with trametinib (ELISA); format: cell-based, human
# Method: Example 178. pATG13 Levels of Mutant KRas MiaPaCa-2 Cells after Treatment with ULK Inhibitors in Combination with Trametinib
# MiaPaCa-2 human pancreatic cancer cells (10000 cells/well) were added to a 384-well tissue-culture treated plate in 50 μL of pre-warmed DMEM medium supplemented with 10% characterized fetal bovine serum (Invitrogen, Carlsbad, Calif.), 100 units/mL penicillin G, 100 μg/mL streptomycin, and 2.5% Horse Serum and allowed to grow overnight at 37° C., 5% CO2, and 95% humidity. The following day, 10 μL of media containing trametinib or DMSO as a control was added to wells. The final concentration of trametinib in wells was 250 nM. A dose response of a test compound (0.6 μL per well) was added. DMSO (0.6 μL) was added to control wells. The plate was briefly shaken to mix wells and then incubated at 37° C. overnight. The next day, the media was aspirated and cells were washed with Dulbecco's Phosphate Buffered Saline (Gibco). Cells were lysed using MPER lysis buffer (Pierce, Rockford, Ill.) containing Halt Phosphatase and Protease Inhibitors (Pierce, Rockford, Ill.) and Phosphatase inhibitor cocktail 2 (Sigma, St. Louis, Mo.) at 4° C. for 10 minutes with shaking.
# (§1) Cellular levels of phospho-Serine 318 ATG13 (pATG13) were measured via an ELISA method. Total ATG13 Antibody (Cell Signaling Cat #13273) was used to coat the wells. The plate was incubated at 4° C. overnight and washed with ELISA wash buffer (Biolegend Cat #421601). The wells were then blocked with assay diluent (Biolegend Cat #421203) for 1 hour at room temperature. Plate wells were washed with ELISA wash buffer. Cell lysate was added to wells and incubated at room temperature for 2 hours. Plate wells were washed with ELISA wash buffer. Biotinylated pS318-ATG13 antibody (Rockland Immunochemicals Cat #600-401-C49) was diluted in assay diluent and added to each well and incubated at room temperature for 1 hour. Plate wells were washed with ELISA wash buffer. Streptavidin linked to horseradish peroxidase (Thermo Fisher Cat #21140) was diluted in assay diluent and added to each well and incubated at room temperature for 1 hour. Plate wells were washed with ELISA wash buffer. High sensitivity TMB substrate (Biolegend Cat #421101) was added to each well and incubated at room temperature for 20 minutes. The reaction was stopped with 2N Sulfuric Acid. The plate was analyzed at on a plate reader measuring absorbance at 450 nm and 540 nm (background). Signal was calculated by first subtracting the background absorbance at 540 nm from the absorbance at 450 nm for each well. Next, the background corrected absorbance at 450 nm from blank wells was subtracted from test wells. Data was compared to control wells to determine % ATG13 phosphorylation. GraphPad Prism was used to calculate IC50 values.
# [2] = test system: phospho-Serine 318 ATG13 (pATG13) in A375 cells; assay: pATG13 levels of mutant BRAF A375 cells after treatment with ULK inhibitors in combination with trametinib (ELISA); format: cell-based, human
# Method: Example 180. pATG13 Levels of Mutant BRAF A375 Cells after Treatment with ULK Inhibitors in Combination with Trametinib
# (§2) A375 human malignant melanoma cancer cells (20000 cells/well) were added to a 96-well tissue-culture treated plate in 100 μL of pre-warmed DMEM medium supplemented with 10% characterized fetal bovine serum (Invitrogen, Carlsbad, Calif.), 100 units/mL penicillin G, and 100 μg/mL streptomycin and allowed to grow overnight at 37° C., 5% CO2, and 95% humidity. The following day, 100 μL of media containing trametinib or DMSO as a control was added to wells. The final concentration of trametinib in wells was 250 nM. A dose response of a test compound (0.5 μL per well) was added. DMSO (0.5 μL) was added to control wells. The plate was briefly shaken to mix wells and then incubated at 37° C. overnight. The next day, the media was aspirated and cells were washed with Dulbecco's Phosphate Buffered Saline (Gibco). Cells were lysed using MPER lysis buffer (Pierce, Rockford, Ill.) containing Halt Phosphatase and Protease Inhibitors (Pierce, Rockford, Ill.) and Phosphatase inhibitor cocktail 2 (Sigma, St. Louis, Mo.) at 4° C. for 10 minutes with shaking.
# as §1
# [3] = test system: phospho-Serine 318 ATG13 (pATG13) in T24 cells; assay: pATG13 levels of mutant HRas T24 cells after treatment with ULK inhibitors in combination with trametinib (ELISA); format: cell-based, human; details: with 250 nM trametinib
# Method: Example 181. pATG13 Levels of Mutant HRas T24 Cells after Treatment with ULK Inhibitors in Combination with Trametinib
# as §2, with “T24” for “A375”, “urinary bladder” for “malignant melanoma”, “(25000” for “(20000”
# as §1
IC50 (ULK2 kinase),IC50 [1],IC50 [2],IC50 [3],SMILES
> 0.5 µM,0.01 to 0.1 µM,,,CCN1CC[C@H](n2cc(Nc3ncc(Br)c(NCCCN4CCCCC4=O)n3)c(C)n2)C1 [Example 64]
0.025 to 0.1 µM,,0.01 to 0.1 µM,0.1 to 0.3 µM,Cc1nn([C@@H]2CCN(C)C2)cc1Nc1ncc(C(F)(F)F)c(NCCCN2CCCCC2=O)n1 [Example 18]
0.1 to 0.5 µM,0.01 to 0.1 µM,0.01 to 0.1 µM,,Cc1nn([C@H]2CCN(C)C2)cc1Nc1ncc(Br)c(NCCCN2CCCCC2=O)n1 [Example 61]
0.1 to 0.5 µM,0.1 to 0.3 µM,,,CCN1CCC(n2cc(Nc3ncc(C(F)(F)F)c(NCCCN4CCCOCC4=O)n3)c(C)n2)CC1 [Example 107]
0.1 to 0.5 µM,0.01 to 0.1 µM,0.01 to 0.1 µM,0.01 to 0.1 µM,Cc1nn(C2CCN(C(C)C)CC2)cc1Nc1ncc(C(F)(F)F)c(NCCCN2CCCCC2=O)n1 [Example 15]
> 0.5 µM,0.1 to 0.3 µM,,,Cc1nn(C2CCN(C(C)C)CC2)cc1Nc1ncc(C(F)(F)F)c(NCCCN2CCCOCC2=O)n1 [Example 108]
0.1 to 0.5 µM,0.01 to 0.1 µM,0.1 to 0.3 µM,0.1 to 0.3 µM,Cc1nn(C2CCN(C(C)C)CC2)cc1Nc1ncc(C(F)(F)F)c(NCCCN2CCCOC2=O)n1 [Example 68]
0.1 to 0.5 µM,0.1 to 0.3 µM,0.1 to 0.3 µM,,CCc1nn(C2CCN(C)CC2)cc1Nc1ncc(Br)c(NCCCN2CCCCC2=O)n1 [Example 53]

# The remaining lines, values behind:
SMILES,IC50 (ULK2 kinase),IC50 [1],IC50 [2],IC50 [3]
Cc1nn(C2CCN(C(C)C)CC2)cc1Nc1ncc(C(F)(F)F)c(NCCCN2CCOCCC2=O)n1 [Example 131],> 0.5 µM,0.1 to 0.3 µM,,
Cc1nn(C2CCN(C)CC2)cc1Nc1ncc(C(F)(F)F)c(NCCCN2CCCOCC2=O)n1 [Example 102],0.025 to 0.1 µM,0.01 to 0.1 µM,,
Cc1nn(C2CCN(C)CC2)cc1Nc1ncc(C(F)(F)F)c(NCCCN2CCOCCC2=O)n1 [Example 127],0.1 to 0.5 µM,0.01 to 0.1 µM,0.01 to 0.1 µM,0.01 to 0.1 µM
Cc1nn(C2CCN(C)CC2)cc1Nc1ncc(C(F)(F)F)c(NCCCN2CCCCC2=O)n1 [Example 8],0.025 to 0.1 µM,,0.01 to 0.1 µM,0.01 to 0.1 µM
Cc1nn(CCN(C)C)cc1Nc1ncc(C(F)(F)F)c(NCCCN2CCCCC2=O)n1 [Example 21],0.1 to 0.5 µM,0.1 to 0.3 µM,,
CC(C)N1CCC(n2cc(Nc3ncc(C(F)(F)F)c(NCCCN4CCCCC4=O)n3)cn2)CC1 [Example 6],0.025 to 0.1 µM,0.01 to 0.1 µM,,
CCN1CCC(n2cc(Nc3ncc(C(F)(F)F)c(NCCCN4CCOCCC4=O)n3)c(C)n2)CC1 [Example 130],0.1 to 0.5 µM,0.01 to 0.1 µM,,
Cc1nn([C@@H]2CCN(C)C2)cc1Nc1ncc(C(F)(F)F)c(NCCCN2CCCOCC2=O)n1 [Example 106],0.1 to 0.5 µM,0.01 to 0.1 µM,,
Cc1nn(C2CCN(C)CC2)cc1Nc1ncc(Cl)c(NCCCN2CCCOCC2=O)n1 [Example 105],> 0.5 µM,0.1 to 0.3 µM,,0.1 to 0.3 µM
Cc1nn(CCCN2CCOCC2)cc1Nc1ncc(C(F)(F)F)c(NCCCN2CCCCCC2=O)n1 [Example 100],0.1 to 0.5 µM,0.1 to 0.3 µM,,0.1 to 0.3 µM
Cc1nn(C2CCN(C)CC2)cc1Nc1ncc(C(F)(F)F)c(NCCCN2CCCCCC2=O)n1 [Example 79],0.001 to 0.025 µM,0.01 to 0.1 µM,,
CN(C)CCn1cc(Nc2ncc(C(F)(F)F)c(NCCCN3CCCCC3=O)n2)cn1 [Example 32],0.1 to 0.5 µM,0.01 to 0.1 µM,,0.01 to 0.1 µM
